Measured values from PubChem BioAssay (NCI).
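96-well plates; 48 h exposure; 5 concentrations. Endpoints by linear interpolation between flanking doses. Not reached: highest tested concentration assigned. At the GI50, growth is halved. TGI: concentration producing complete growth inhibition.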

Legend:
Assay in all cases: DTP human tumour cell line panel, 48 h
[1] = system: ACHN renal
[2] = system: MCF7 breast
[3] = system: SK-MEL-5 melanoma
[4] = system: NCI-H460 lung
[5] = system: CAKI-1 renal
[6] = system: OVCAR-3 ovarian
[7] = system: IGROV1 ovarian
[8] = system: UACC-62 melanoma
[9] = system: UO-31 renal
[10] = system: NCI/ADR-RES ovarian
[11] = system: SK-MEL-2 melanoma
[12] = system: HT29 colon
[13] = system: 786-0 renal
[14] = system: SF-295 CNS
[15] = system: TK-10 renal
[16] = system: HCC-2998 colon
[17] = system: MDA-MB-231 breast
[18] = system: HCT-116 colon
[19] = system: MOLT-4 leukemia
[20] = system: LOX IMVI melanoma
[21] = system: UACC-257 melanoma
[22] = system: HOP-92 NSCLC
[23] = system: HCT-15 colon
[24] = system: HL-60(TB) leukemia
[25] = system: NCI-H23 lung
[26] = system: EKVX NSCLC
[27] = system: K-562 leukemia
[28] = system: SF-268 CNS
[29] = system: KM12 colon
[30] = system: HS 578T breast

Structure (SMILES): CCCC(=O)NC(c1ccc2c(c1)OC(F)(F)O2)c1cc(C)c2cccnc2c1O (configuration not stated)
- TGI [1]: > 36600 nM
- GI50 [2]: 419 nM
- TGI [2]: > 100000 nM
- GI50 [3]: 714 nM
- TGI [3]: 2350 nM
- GI50 [4]: 421 nM
- TGI [4]: > 100000 nM
- GI50 [5]: 438 nM
- TGI [5]: 21400 nM
- GI50 [6]: 437 nM
- TGI [6]: > 100000 nM
- GI50 [7]: 453 nM
- GI50 [8]: 275 nM
- TGI [8]: 1970 nM
- GI50 [9]: 218 nM
- GI50 [10]: 290 nM
- TGI [10]: 4820 nM
- GI50 [11]: 1280 nM
- TGI [11]: > 68700 nM
- GI50 [12]: 492 nM
- TGI [12]: > 100000 nM
- GI50 [13]: 702 nM
- TGI [13]: > 34500 nM
- GI50 [14]: 691 nM
- TGI [14]: > 100000 nM
- GI50 [15]: 1990 nM
- TGI [15]: > 100000 nM
- GI50 [16]: 780 nM
- TGI [16]: > 100000 nM
- GI50 [17]: 565 nM
- TGI [17]: > 100000 nM
- GI50 [18]: 509 nM
- TGI [18]: > 100000 nM
- GI50 [19]: 397 nM
- TGI [19]: > 100000 nM
- GI50 [20]: 451 nM
- TGI [20]: > 33400 nM
- GI50 [21]: 1300 nM
- TGI [21]: > 28900 nM
- GI50 [22]: 296 nM
- TGI [22]: 33400 nM
- GI50 [23]: 353 nM
- TGI [23]: > 100000 nM
- GI50 [24]: 391 nM
- TGI [24]: > 100000 nM
- GI50 [25]: 669 nM
- TGI [25]: > 100000 nM
- GI50 [26]: 987 nM
- TGI [26]: > 100000 nM
- GI50 [27]: 367 nM
- TGI [27]: > 100000 nM
- GI50 [28]: 690 nM
- TGI [28]: > 100000 nM
- GI50 [29]: 793 nM
- TGI [29]: > 100000 nM
- GI50 [30]: 2190 nM
- TGI [30]: > 100000 nM
